Laboratory results as given in patent US20140090094A1, “MODULATORS OF SLC22A7” (BAYER INTELLECTUAL PROPERTY GmbH, priority 2011, published 2014).

Legend:
OAT3h = molecular target: T1, OAT3h (Homo sapiens, UniProt Q8TCC7); experiment: 1 min uptake into 293 cells expressing OAT3h; format: cell-based; settings: for clearance: 1 min uptake, 0.1 μmol/l radiotracer
T1 construct: expressed in transfected cells; host or cells: 293 cells (HEK-293)
T1 sequence (Q8TCC7 1-542): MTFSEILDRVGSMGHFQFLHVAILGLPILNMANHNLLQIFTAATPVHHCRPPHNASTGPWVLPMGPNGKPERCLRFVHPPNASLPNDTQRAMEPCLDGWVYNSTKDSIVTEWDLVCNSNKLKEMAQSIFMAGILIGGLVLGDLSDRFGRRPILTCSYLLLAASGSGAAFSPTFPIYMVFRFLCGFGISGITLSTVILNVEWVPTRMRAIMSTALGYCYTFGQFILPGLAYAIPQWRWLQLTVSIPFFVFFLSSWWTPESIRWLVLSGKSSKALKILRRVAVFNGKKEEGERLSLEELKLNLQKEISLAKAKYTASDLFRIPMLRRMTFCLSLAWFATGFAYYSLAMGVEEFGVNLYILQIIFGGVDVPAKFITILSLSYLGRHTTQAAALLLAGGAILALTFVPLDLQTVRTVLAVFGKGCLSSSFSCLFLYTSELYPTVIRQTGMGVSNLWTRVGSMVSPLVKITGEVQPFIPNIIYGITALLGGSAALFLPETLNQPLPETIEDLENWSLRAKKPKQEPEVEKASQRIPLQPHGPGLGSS
Experimental: Uptake was measured at 37° C.

OAT2h mutant E441Q = molecular target: T2, OAT2h mutant E441Q (Homo sapiens, UniProt Q9Y694, E443Q); experiment: uptake by OAT2h mutant E441Q (eGFP chimera) in 293 cells; format: cell-based; settings: 1 min, 37° C., 0.1 μmol/l radiolabeled solute
T2 construct: expressed in transfected cells; host or cells: 293 cells (HEK-293), doxycycline-inducible
T2 sequence (Q9Y694 1-546 isoform Q9Y694-2 E441Q): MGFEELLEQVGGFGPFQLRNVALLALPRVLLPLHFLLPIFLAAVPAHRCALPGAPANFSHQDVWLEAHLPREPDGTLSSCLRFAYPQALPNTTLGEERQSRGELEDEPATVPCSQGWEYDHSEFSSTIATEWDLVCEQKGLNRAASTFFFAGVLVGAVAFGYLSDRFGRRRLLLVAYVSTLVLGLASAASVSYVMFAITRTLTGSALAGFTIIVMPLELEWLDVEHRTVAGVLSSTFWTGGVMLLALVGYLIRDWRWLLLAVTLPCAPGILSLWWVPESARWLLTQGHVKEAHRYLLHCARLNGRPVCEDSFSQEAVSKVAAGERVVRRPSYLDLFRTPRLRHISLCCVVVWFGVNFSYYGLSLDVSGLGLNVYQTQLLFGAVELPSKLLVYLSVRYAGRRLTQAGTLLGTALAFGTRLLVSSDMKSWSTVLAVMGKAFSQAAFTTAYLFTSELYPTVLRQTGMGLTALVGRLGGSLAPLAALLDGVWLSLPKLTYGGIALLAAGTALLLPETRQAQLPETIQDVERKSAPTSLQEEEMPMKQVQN
Experimental: 293 cells transfected for expression of eGFP chimera of OAT2h wild-type or OAT2hE441Q in dishes were incubated (1 min, 37° C.) with 0.1 μmol/l radiolabeled solute in uptake buffer, washed, and lysed. Cell lysates were analyzed by liquid scintillation counting.
In transmembrane segment 10, the OAT2 orthologues from human, horse, pig, cattle, rabbit, rat, mouse, opossum, and chicken uniformly contain a glutamate (E441 in OAT2h) that is absent in the related carriers OAT1, OAT3, and SLC22A13. Since in other SLC22 family members transmembrane segment 10 is involved in substrate discrimination (Bacher et al. Biochim Biophys Acta 2009; 1788:2594-2602.), the negative charge of the glutamate side chain could specifically attract the ammonium residue of the glutamate substrate. To test this hypothesis, a mutant of OAT2h was created with glutamine at position 441 (E441 Q); eGFP was attached to the C-terminus to verify unaltered membrane trafficking (FIG. 23). […] It follows that E441 is essential for transport of glutamate. […]

| Compound | transport of glutamate (in words) (OAT3h) | clearance (OAT3h) | uptake with mutant E441Q versus wild-type (in words) (OAT2h mutant E441Q) |
| --- | --- | --- | --- |
| N[C@@H](CCC(=O)O)C(=O)O [glutamate] | do not transport | 0.2±0.6 μl min-1 mg protein-1 | completely abolished |
| O=C(O)c1cc(=O)[nH]c(=O)[nH]1 [orotic acid] |  | 0.7±0.1 μl min-1 mg protein-1 | much reduced, but still evident |
